Assay [1] concerns M. avium LPR. The assay can be described thus: In vitro MIC by standard dilution method, M. avium LPR. The note with it: Mycobacterium avium, read-out: MIC M. avium LPR.
Method: (§1) The in vitro activity reported in Table 2 was conducted by standard dilution methods known to those skilled in the art. Briefly, serial two-fold dilutions of antibiotic are prepared in a diluent, and a standard volume of mycobacterial growth medium is added to drug aliquot. The medium is inoculated with a standardized mycobacterial cell suspension, and then incubated under appropriate conditions. Following incubation, the Minimal Inhibitory Concentration (MIC) is determined by visual observation. The MIC is defined as the lowest drug concentration (in µg/ml) required to inhibit mycobacterial growth.
Assay [2] deals with M. avium Lowell Young. Kind of assay: In vitro MIC by standard dilution method, M. avium Lowell Young. The note with it: Mycobacterium avium, read-out: MIC M. avium Lowell Young.
Method: as §1
Assay [3] deals with S. aureus UC® No. 9213. The assay can be described thus: Murine Assay: in vivo antimicrobial activity, survival of infected mice. Set-up: species or system Staphylococcus aureus. To be noted: survival over six days; for ED50: Staphylococcus aureus, oral treatment one hour and five hours after infection, probit analysis. As to the method:
Antimicrobial activity was tested in vivo using the Murine Assay procedure. Groups of female mice (six mice of 18-20 grams each) were injected intraperitoneally with Staphylococcus aureus bacteria which were thawed just prior to use and suspended in brain heart infusion with 4% brewers yeast (Staphylococcus aureus) or brain heart infusion (Streptococcus species). Antibiotic treatment at six dose levels per drug was administered one hour and five hours after infection by either oral intubation or subcutaneous routes. Survival was observed daily for six days. ED50 values based on mortality ratios were calculated using probit analysis. The subject compounds were compared against vancomycin as a control.

The test system of assay [4] is M. tuberculosis 91-2225. The assay can be described thus: In vitro MIC by standard dilution method, M. tuberculosis. Format: cell-based. To be noted: Mycobacterium tuberculosis, 912225; lowest concentration required to kill the organism or inhibit its growth in vitro; visual observation.
The test system of assay [5] is M. tuberculosis (Erdman strain). Kind of assay: In vivo antimycobacterial activity, organ counts in infected CD-1 mice. Set-up: species or system Mycobacterium tuberculosis. The note with it: CD-1 mice infected intravenously with 1 x 10^7 M. tuberculosis. As to the method: The in vivo data for Table 3 was obtained from CD-1 mice infected intravenously with 1 x 10^7 viable M. tuberculosis (Erdman strain). Twenty-four hours later drug treatment was initiated. All the drugs were given by oral gavage twice daily for four weeks. At the end of therapy, viable cell counts were determined from homogenates of spleens and lungs.

The mark [6] stands for this setting: UC9213, po, 144 h, read-out: ED50 (mg/kg) Example, PO, female mice infected intraperitoneally.
[7] abbreviates: 100 mg/kg by oral gavage twice daily for four weeks.
The mark [8] stands for this setting: UC9213, 144 h, female mice infected intraperitoneally, read-out: ED50 (mg/kg) Example, PO.
Where [9] appears, read: positive control, 25 mg/kg orally twice daily for four weeks.

In brackets after ≈: the same amount, converted by molar mass. Several values for one entry are separate records, joined by “and”; a condition that tells them apart may be missing. Identical values can stand only once. Like-named read-outs stand apart in the source and are kept apart here.

As a reminder, the MIC is the smallest concentration in the dilution series that meets the test's criterion for growth inhibition.

Consider `CC[C@H]1OC(=O)[C@H](C)[C@@H](O[C@H]2C[C@@](C)(OC)[C@@H](O)[C@H](C)O2)[C@H](C)[C@@H](O[C@@H]2O[C@H](C)C[C@H](N(C)C)[C@H]2O)[C@](C)(O)C[C@@H](C)CN(C)[C@H](C)[C@@H](O)[C@]1(C)O` [AZITHROMYCI N, azithromycin, reference compound], for which the MIC in assay [1] was found to be 8 µg/mL (≈ 10.7 µM); in assay [2], 4 µg/mL (≈ 5.34 µM).

For `CC(=O)NC[C@H]1CN(c2ccc(N3CCSCC3)c(F)c2)C(=O)O1` [Example 1, (S)-N-[[3-[3-fluoro-4-(4-thiomorpholinyl)phenyl]-2-Oxo-5-oxazolidinyl]methyl]acetamide], the ED50 in assay [3] (setting [6]) came out at 1.25 mg/kg. For the same compound, the MIC in assay [4] turned out to be 0.5 µg/mL (≈ 1.41 µM); in assay [1] it was 4 µg/mL (≈ 11.3 µM); in assay [2] it was 1 µg/mL (≈ 2.83 µM). For the same compound, the “Log10 Colony-Forming Units of Mycobacterium tuberculosis Per Organ, Lung” value in assay [5] (setting [7]) worked out at 3.59. Also, the “Log10 Colony-Forming Units of Mycobacterium tuberculosis Per Organ, Spleen” value in assay [5] (setting [7]) is listed as 4.61.

In the case of `CC(=O)NC[C@H]1CN(c2ccc(N3CCS(=O)(=O)CC3)c(F)c2)C(=O)O1` [Example 2, (S)-N-[[3-[3-fluoro-4-(1,1-dioxothiomorpholin-4-yl)phenyl]-2-oxo-5-oxazolidinyl]methyl]acetamide], the ED50 in assay [3] (setting [6]) amounted to 2 mg/kg. In addition, the MIC in assay [4] came out at 0.5 µg/mL (≈ 1.3 µM); in assay [1], 4 µg/mL (≈ 10.4 µM); in assay [2], 2 µg/mL (≈ 5.19 µM).

`CC(=O)NC[C@H]1CN(c2ccc(N3CC[S+]([O-])CC3)c(F)c2)C(=O)O1` [Example 3, (S)-N-[[3-[3-fluoro-4-(1-oxothiomorpholin-4-yl)phenyl]-2-oxo-5-oxazolidinyl]methyl]acetamide]: the ED50 in assay [3] (setting [8]) was 3.4 mg/kg.

Turning to `CC(=O)NC[C@H]1CN(c2cc(F)c(N3CCOCC3)c(F)c2)C(=O)O1` [Example 4], the ED50 in assay [3] (setting [6]) worked out at 5.5 mg/kg. Also, in assay [5] (setting [7]), the “Log10 Colony-Forming Units of Mycobacterium tuberculosis Per Organ, Lung” value was determined as 5.03 and the “Log10 Colony-Forming Units of Mycobacterium tuberculosis Per Organ, Spleen” value turned out to be 5.24.

Regarding `CC(=O)NC[C@H]1CN(c2ccc(N3CCOCC3)c(F)c2)C(=O)O1` [Example 5], the ED50 in assay [3] (setting [8]) came to 5.6 mg/kg.

For the compound `O=CNC[C@H]1CN(c2ccc(N3CCOCC3)c(F)c2)C(=O)O1` [Example 8], in assay [3] (setting [8]), the ED50 was determined as 12.4 mg/kg.

As for `COC(=O)NC[C@H]1CN(c2ccc(N3CCOCC3)c(F)c2)C(=O)O1` [Example 9], the ED50 in assay [3] (setting [8]) worked out at 4.4 mg/kg.

For the compound `O=C(NC[C@H]1CN(c2ccc(N3CCOCC3)c(F)c2)C(=O)O1)C(Cl)Cl` [Example 10], the ED50 in assay [3] (setting [8]) turned out to be 6.8 mg/kg.

`NNC(=O)c1ccncc1` [ISONIAZID, Isoniazid, reference compound] registered an MIC in assay [4] not above 0.015 µg/mL. In addition, in assay [5] (setting [9]), the “Log10 Colony-Forming Units of Mycobacterium tuberculosis Per Organ, Lung” value is 3.81 and the “Log10 Colony-Forming Units of Mycobacterium tuberculosis Per Organ, Spleen” value is recorded as 4.36.

As to `CN[C@H](CC(C)C)C(=O)N[C@H]1C(=O)N[C@@H](CC(N)=O)C(=O)N[C@H]2C(=O)N[C@H]3C(=O)N[C@H](C(=O)N[C@H](C(=O)O)c4cc(O)cc(O)c4-c4cc3ccc4O)[C@H](O)c3ccc(c(Cl)c3)Oc3cc2cc(c3O[C@@H]2O[C@H](CO)[C@@H](O)[C@H](O)[C@H]2O[C@H]2C[C@](C)(N)[C@H](O)[C@H](C)O2)Oc2ccc(cc2Cl)[C@H]1O` [Vancomycin, vancomycin, reference compound], the “ED50 (mg/kg) Vancomycin, SC” value in assay [3] (vancomycin control run alongside the example of the same row, female mice infected intraperitoneally, subcutaneous treatment one hour and five hours after infection, 8640 min) is 2.0 mg/kg and 3.9 mg/kg.

Values taken from patent publication EP0717738B1, “SUBSTITUTED OXAZINE AND THIAZINE OXAZOLIDINONE ANTIMICROBIALS” (priority 1993, dated 1995).
